According to US20240426845A1, “METHOD FOR DETECTING A LIPIDATED PROTEIN VIA FLUORESCENCE RESONANCE ENERGY TRANSFER (FRET)” (Biogen MA Inc., priority 2021, published 2024):

Tests used:
[1] = system: CCF-STTG1 astrocytoma cells (ApoE lipoprotein secretion); assay: native-PAGE gel of ApoE lipidation in conditioned media; type: cell-based; conditions: CCF-STTG1 cell media following culture with compound
Description: (§1) To test whether the TR-FRET assay detects lipidated proteins secreted from cells, the TR-FRET assay was tested on concentrated media from cultures of CCF-STTG1 astrocytoma cells grown in the absence and presence of T0901317, a LXR transcription factor agonist that induces ApoE lipoprotein secretion. Samples of concentrated media were mixed with TR-FRET buffer, europium-conjugated anti-ApoE3 antibody and DiD, incubated at 37° C. for 20 hours, and then fluorescence was measured using an Envision plate reader. As a control, samples were analyzed by native-PAGE gels, a conventional method of detecting lipidated proteins.

[2] = system: CCF-STTG1 astrocytoma cells (ApoE lipoprotein secretion); assay: TR-FRET ApoE lipidation assay on media from CCF-STTG1 cells; type: cell-based; conditions: Homo sapiens, media from CCF-STTG cells, 48 hours incubation, europium-conjugated anti-ApoE antibody and DiD, n=3, read-out: EC50 (TR-FRET signal, ApoE lipidation)
Description: TR-FRET analysis was performed on an Envision plate reader (Perkin Elmer). The donor fluorophore (europium cryptate-conjugated antibody) was excited at 320 nm. A 40 μs delay occurred before measuring emission signals at 620 nm (donor fluorescence) and 665 nm wavelengths (DiD acceptor FRET signal) during a 400 μs window. Sample normalized FRET signal was determined by finding the ratio of the 665 nm emission to 620 nm emission.
as §1

O=S(=O)(c1ccccc1)N(CC(F)(F)F)c1ccc(C(O)(C(F)(F)F)C(F)(F)F)cc1 [T0901317]
lipidated ApoE in cell media by native-PAGE [1]: dose-dependent accumulation of lipidated ApoE
EC50 [2]: 50.2 nM
